# Calls of active or inactive are those of the source. The calls are words filed in the database; no cut-off is given here.
# Columns and labels:
# MDCK = experiment: (§1) Cytotoxicity against MDCK cells assessed as reduction in cell viability incubated for 72 hrs by MTT assay; type: cell-based, Canis lupus familiaris; conditions: dog, mdck, 72 h
# [1] = test system: Vesicular stomatitis virus; experiment: Antiviral activity against Vesicular stomatitis virus Indiana infected in A549 cells assessed as reduction in virus titer preincubated for 24 hrs followed by viral infection and measured after 72 hrs by microscopic analysis; type: functional, organism-based
# Enterovirus E [2] = experiment: (§2) Antiviral activity against Enterovirus E LCR-4 infected in A549 cells assessed as reduction in virus titer treated 1 hr post viral infection followed by replacement with fresh medium with compounds and measured after 72 hrs by MTT assay; type: functional, organism-based; conditions: LCR-4, A549
# [3] = as §2, with “Selectivity index, ratio of CC50 for cytotoxicity against human A549 cells to EC50 for antiviral” for “Antiviral”; type: toxicity, cell-based; conditions: read-out: Selectivity Index
# Enterovirus E [4] = experiment: Antiviral activity against Enterovirus E LCR-4 infected in A549 cells assessed as inhibition of viral adsorption at early stage of replication treated for 1 hr during viral infection followed by replacement with fresh medium and measured after 72 hrs by MTT assay; type: functional, organism-based
# Human adenovirus 5 [5] = experiment: Antiviral activity against Human adenovirus 5 Adenoid 75 infected in A549 cells assessed as reduction in virus titer preincubated for 24 hrs followed by viral infection and measured after 72 hrs by microscopic analysis; type: functional, organism-based
# A549 = experiment: (§3) Cytotoxicity against human A549 cells assessed as reduction in cell viability incubated for 48 hrs by MTT assay; type: cell-based; conditions: a549, 48 h
# [6] = as §3; type: cell-based; conditions: A549 cells
# Enterovirus E [7] = experiment: as §2, with “Potency index, ratio of ribavirin EC50 to test compound EC50 for antiviral” for “Antiviral”; type: functional
# Human adenovirus 5 [8] = experiment: Antiviral activity against Human adenovirus 5 Adenoid 75 infected in A549 cells assessed as inhibition of viral adsorption at early stage of replication treated for 1 hr during viral infection followed by replacement with fresh medium and measured after 72 hrs by MTT assay; type: functional, organism-based
# Human alphaherpesvirus 1 [9] = experiment: Antiviral activity against Human herpesvirus-1 MacIntyre infected in A549 cells assessed as inhibition of viral adsorption at early stage of replication treated for 1 hr during viral infection followed by replacement with fresh medium and measured after 48 hrs by MTT assay; type: functional, organism-based
# Human alphaherpesvirus 1 [10] = experiment: Antiviral activity against Human herpesvirus 1 MacIntyre infected in A549 cells assessed as reduction in virus titer preincubated for 24 hrs followed by viral infection and measured after 72 hrs by microscopic analysis; type: functional, organism-based
# [11] = as §1; type: cell-based, Canis lupus familiaris; conditions: dog, MDCK cells
# Human alphaherpesvirus 1 [12] = experiment: as §2, with “Potency index, ratio of acyclovir EC50 to test compound EC50 for antiviral” for “Antiviral”, “Human herpesvirus 1 MacIntyre” for “Enterovirus E LCR-4”, “48” for “72”; type: functional
# Human alphaherpesvirus 1 [13] = experiment: (§4) Antiviral activity against Human herpesvirus 1 MacIntyre infected in A549 cells assessed as reduction in virus titer treated 1 hr post viral infection followed by replacement with fresh medium with compounds and measured after 48 hrs by MTT assay; type: functional, organism-based; conditions: Human alphaherpesvirus 1, MacIntyre
# [14] = as §4, with “Selectivity index, ratio of CC50 for cytotoxicity against human A549 cells to EC50 for antiviral” for “Antiviral”, “72” for “48”; type: toxicity, cell-based; conditions: read-out: Selectivity Index
SMILES,CC20 (MDCK),Activity [1],EC50 (Enterovirus E [2]),selectivity ratio at 72 h [3],Activity (Enterovirus E [4]),Activity (Human adenovirus 5 [5]),CC20 (A549),CC50 at 48 h [6],Ratio EC50 (Enterovirus E [7]),Activity (Human adenovirus 5 [8]),Activity (Human alphaherpesvirus 1 [9]),Activity (Human alphaherpesvirus 1 [10]),CC50 at 72 h [11],Ratio EC50 (Human alphaherpesvirus 1 [12]),EC50 (Human alphaherpesvirus 1 [13]),selectivity ratio at 72 h [14]
C=C(C)[C@@H]1CC[C@]2(COC(=O)CCCCCCCCCC(=O)O)CC[C@]3(C)[C@H](CC[C@@H]4[C@@]5(C)CC[C@H](O)C(C)(C)[C@@H]5CC[C@]43C)[C@@H]12,10.2 µM,inactive,10.3 µM,2.9,inactive,inactive,5.09 µM,29.4 µM,10,inactive,inactive,inactive,–,–,–,–
C=C(C)[C@@H]1CC[C@]2(COC(=O)CSCC(=O)O)CC[C@]3(C)[C@H](CC[C@@H]4[C@@]5(C)CC[C@H](O)C(C)(C)[C@@H]5CC[C@]43C)[C@@H]12,21.08 µM,inactive,–,–,inactive,inactive,21.08 µM,–,–,inactive,inactive,inactive,42.2 µM,–,–,–
C=C(C)[C@@H]1CC[C@]2(COC(=O)/C=C(\C)C(=O)N3CCOCC3)CC[C@]3(C)[C@H](CC[C@@H]4[C@@]5(C)CC[C@H](O)C(C)(C)[C@@H]5CC[C@]43C)[C@@H]12,37.82 µM,inactive,37.8 µM,3,inactive,inactive,37.82 µM,114 µM,3,inactive,inactive,inactive,–,–,–,–
CCOC(=O)C1=C[C@@H](OC(CC)CC)[C@H](NC(C)=O)[C@@H](N)C1 [OSELTAMIVIR],320.51 µM,–,–,–,–,–,–,–,–,–,–,–,7870 µM,–,–,–
C=C(C)[C@@H]1CC[C@]2(COC(=O)CCCC(=O)O)CC[C@]3(C)[C@H](CC[C@@H]4[C@@]5(C)CC[C@H](O)C(C)(C)[C@@H]5CC[C@]43C)[C@@H]12,11.22 µM,inactive,–,–,inactive,inactive,22.44 µM,80.8 µM,–,inactive,inactive,inactive,–,3,22.4 µM,3.6
C=C(C)[C@@H]1CC[C@]2(COC(=O)c3ccccc3C(=O)N3CCOCC3)CC[C@]3(C)[C@H](CC[C@@H]4[C@@]5(C)CC[C@H](O)C(C)(C)[C@@H]5CC[C@]43C)[C@@H]12,143.47 µM,inactive,–,–,inactive,inactive,35.87 µM,144 µM,–,inactive,inactive,inactive,–,3,35.9 µM,4

# — ChEMBL document CHEMBL4831514, “Novel betulin dicarboxylic acid ester derivatives as potent antiviral agents: Design, synthesis, biological evaluation, structure-activity relationship and in-silico study” (Eur J Med Chem, 2021)
